Patent US8497083B2, “Fructosyl amino acid oxidase” (priority 2009, dated 2013)

Target: T1, fructosyl amino acid oxidase from Pichia sp. N1-1 (N1-1 FAOD, SEQ ID NO: 2) variant N47A (Pichia sp. N1-1, UniProt Q3L8U0, N47A)
T1 construct: crude and purified
T1 sequence (Q3L8U0 1-427 N47A): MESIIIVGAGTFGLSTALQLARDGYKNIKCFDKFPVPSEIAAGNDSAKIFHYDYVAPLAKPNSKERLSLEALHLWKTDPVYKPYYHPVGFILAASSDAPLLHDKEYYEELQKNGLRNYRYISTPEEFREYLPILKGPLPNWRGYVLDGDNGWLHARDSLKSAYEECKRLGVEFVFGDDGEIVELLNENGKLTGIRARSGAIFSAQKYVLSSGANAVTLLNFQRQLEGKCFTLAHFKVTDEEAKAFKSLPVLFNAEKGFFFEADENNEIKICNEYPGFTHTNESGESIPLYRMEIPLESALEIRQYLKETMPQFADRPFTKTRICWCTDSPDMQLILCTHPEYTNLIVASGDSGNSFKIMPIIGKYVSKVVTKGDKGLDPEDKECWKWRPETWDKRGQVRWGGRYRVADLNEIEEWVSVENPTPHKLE
Assay: Dehydrogenase activity kinetics (mPMS/DCIP), N1-1 FAOD N47A mutant
Format: biochemical
Details: mPMS/DCIP over 4AA/TODB/POD
Text: As used herein, “dehydrogenase activity” is an enzymatic activity (Vmax) of the fructosyl amino acid oxidase to catalyze oxidation of fructosyl amino acid to generate 2-keto-D-glucose and the corresponding amino acid while utilizing an electron mediator other than oxygen as an electron acceptor. The dehydrogenase activity may be assayed by measuring the amount of electrons transferred to the mediator using, for example, one of mPMS/DCIP (1-methoxy-5-methylphenazinium methylsulfate/2,6-dichloroindophenol), cPES (trifluoro-acetate-1-(3-carboxy-propoxy)-5-ethyl-phenanzinium, NA BM31—1144 (N,N-bis-(hydroxyethyl)-3-methoxynitrosoaniline hydrochloride, NA BM31—1008 (N,N-bis-hydroxyethyl-4-nitrosoaniline) and N—N-4-dimethyl-nitrosoaniline.
As used herein in the context of the relative or quantitative activity, the dehydrogenase activity is specifically defined to be the mole amount of the substrate (fructosyl amino acid) oxidized per unit time measured by the amount of electrons transferred to the mediator at 25° C. in 10 mM PPB (pH 7.0), 0.6 mM DCIP, and 6 mM methoxy PMS (mPMS).
Escherichia coli BL21 (DE3) cells harboring expression vectors of N1-1 FAOD (SEQ ID NO: 2) mutants were grown in 150 ml of LB medium containing 50 μg/ml kanamycin at 37° C. […] The formation of quinoneimine dye was measured spectrophotometrically at 546 nm. […]

## CC(C)[C@H](NCC1(O)OC[C@@H](O)[C@@H](O)[C@@H]1O)C(=O)O (some centres unmarked) [f-αVal, fructosyl valine]
Crude preparation
  B/A (Vmax dehydrogenase/Vmax oxidase): 7.5
Purified enzyme
  B/A (Vmax dehydrogenase/Vmax oxidase): 4.3
